Where no end group is shown, it is not given here.
Columns and labels:
[1] = test system: EV71 virus-SCARB2 interaction; experiment: Virus-SCARB2 co-immunoprecipitation competition; format: binding; conditions: SCARB2-Flag 293T lysates incubated with EV71 virus with or without compound, anti-Flag IP, anti-VP1 immunoblotting
Experimental: Fig 5 LL-18 interferes with virus-SCARB2 interaction. (A) Molecular docking model of LL-18 with EV71 virion. […] The amino acid residues of capsid protein interacting with both LL-18 and SCARB2 are indicated (right panel). (B) 293T cells expressing SCARB2-Flag were lysed and cell lysates were incubated with EV71 virus in the absence or presence of the indicated amount of LL-18. Cell lysates were then immunoprecipitated with anti-Flag antibody and the precipitated virus was determined with anti-VP1 antibody. (C) 293T cells expressing Annexin 2-Flag were lysed and cell lysates were incubated with EV71 virus in the absence or presence of LL-18. Cell lysates were then immunoprecipitated with anti-Flag antibody and the precipitated virus was determined with anti-VP1 antibody.
Coimmunoprecipitation was performed as previously described. Briefly, VP1, VP2, and VP3 were PCR amplified and cloned into pcDNA3.1 with an HA tag. LL-18 or LL-37 encoding oligonucleotides were inserted into an eGFP-expressing construct (pHW200-eGFP). […] After washing with wash buffer (0.05% Triton X-100) six times, samples were analyzed by Western blotting.
Supplementary file ppat.1011967.s004.tif: S4 Fig Compound 12s interferes with virus-SCARB2 interaction. […] Cell lysates were then immunoprecipitated with anti-Flag antibody and the precipitated virus was determined with anti-VP1 antibody. […]

IFN-β = IFN-β production in RD cells (q-RT-PCR); format: cell-based, human
Experimental: For real-time PCR, cells were treated as described, and cellular total RNA was isolated using the Cell Total RNA Isolation Kit (ForeGene, China) according to the manufacturer’s protocol. The cDNA was synthesized using the ProtoScript II First Strand cDNA Synthesis Kit (New England Biolabs). cDNA was then determined with 2×RealStar Green Fast Mixture (GenStar, China) with the following primers: […]
Supplementary file ppat.1011967.s007.tif: S7 Fig Induction of IFN-β production by peptides. (A) RD cells treated with 1.5 μM LL-18 or LL-37 for indicated time and IFN-β production was detected by q-RT-PCR. (B) RD cells treated with EV71 viruses pre-treated with PBS or LL-18 for indicated time and IFN-β production was detected by q-RT-PCR. ns, not significant; **, P<0.01; ***, P<0.001. (TIF) Click here for additional data file.

CVB5 virus = experiment: 1H NMR titration of peptide with CVB5 virus; format: binding, coxsackievirus B5; conditions: molar ratio peptide to virus 90:1, 800 MHz, 298k
Experimental: The NMR titrations were performed on a Bruker 800 MHz (Avance NEO) spectrometer equipped with cryo-probe. The molar ratio of the peptide to the virus was 90:1. The experiments were recorded using zgespg pulse for 128 scans at 298k and the results were analyzed by Topspin.

EV71 virions = experiment: Viral particle ultracentrifugation (uncoating with SCARB2 at pH 5.5); parameters: species or system enterovirus 71 (EV71); conditions: EV71 MOI = 10, 1.5 μg SCARB2, pH 5.5, 37°C 2 hrs, iodoxanol gradient ultracentrifugation, immunoblotting
Experimental: Fig 6 LL-18 stabilizes the viral particles by inhibiting uncoating. (A) EV71 virus (MOI = 10) was pre-incubated with PBS, indicated amount of LL-18 or NaCl for 1 hr and then mixed with SYBR green dyes II before they were heated to indicated temperatures. The fluorescent signals were measured and plotted against temperature. PBS was used as a negative control. (B) EV71 virus (MOI = 10) was pre-incubated with PBS, LL-18, or 12s for 2 hrs. Half of the samples were then treated with 1.5 μg SCARB2 protein and incubated at 37°C for 2 hrs at pH 5.5. Samples were then subjected to ultracentrifugation as detailed in materials and methods. The numbers above represent the fractions collected from top to bottom.
EV71 viruses were pre-incubated with either PBS, 12s, or LL-18 for 1 hr. Then half the samples were treated with 1.5 μg purified SCARB2 protein (Sino Biological, China) with pH adjusted to 5.5. The samples were incubated at 37°C for 2 hrs to simulate the virus uncoating environment. Viral particles were then loaded onto iodoxanol gradients (0% 500 μL, 21% 1 mL, 27% 1 mL, 33% 1 mL, 39% 1 mL) and ultra-centrifuged at 4°C, 45000 rpm for 1.5 hrs. 7 fractions were collected from the top, and samples were precipitated with Trichloroacetic acid (TCA) before being analyzed with immunoblotting.

[2] = test system: mouse-adapted EV71 (mEV71); experiment: mEV71 infection inhibition in RD cells; format: cell-based, enterovirus 71 (EV71); conditions: mEV71 pre-incubated with LL-18 1 hr, titer 24 h.p.i (S5B Fig)
Experimental: Supplementary file ppat.1011967.s005.tif: S5 Fig LL-18 inhibits mEV71 infection in vivo. (A) 6-day-old ICR mice were infected with parental EV71 or mouse-adapted virus (mEV71) and the mice survival rate was determined. (B) RD cells infected with mEV71 pre-incubated with PBS or LL-18 for 1 hr were determined for virus titer 24 h.p.i. ***, P<0.001. (C) ICR mice infected with mEV71 or mEV71 pre-incubated with the indicated amount of LL-18 were sacrificed at 1 d.p.i. and viral titers from muscle were determined. ns, not significant; ***, P<0.001. (TIF) Click here for additional data file.

Sequence: FRKSKEKIGKLFKRIVQRILDFLRNLV [LL-18]
- inhibition of EV71 virus binding to SCARB2 [1]: inhibit virus binding to SCARB2 in a dose-dependent manner
- interferon (IFN-β) production after pre-incubation of peptide with viruses (IFN-β; RD cells treated with EV71 pre-treated with LL-18, q-RT-PCR (S7B Fig)): reduced its ability to induce interferon production
- induction of interferon (IFN-β) production by peptide alone (IFN-β; RD cells, 1.5 μM peptide, q-RT-PCR (S7A Fig)): could induce interferon production
- interaction of peptide with CVB5 virus by 1H 1D NMR (amide region) (CVB5 virus): little effect on the spectra of peptides
- inhibition of uncoating (VP1 distribution in density gradient fractions) (EV71 virions): remained in the higher density fractions
- inhibition of mEV71 infection in RD cells (virus titer) [2]: could still inhibit the infection of this mEV71 strain in RD cells

From PMC10846744, “Cathelicidin peptide analogues inhibit EV71 infection through blocking viral entry and uncoating” (PLOS Pathogens, 2024)
